Like-named read-outs stand apart in the source and are kept apart here.
Key:
Test in all cases: Test C pre/postemergence
Type in all cases: in vivo
[1] = system: Surinam grass (Brachiaria decumbens); conditions: Urochloa decumbens; for pest or weed control at 125 g/ha: 125 g ai/ha; for pest or weed control at 500 g/ha: 500 g ai/ha; for pest or weed control at 62 g/ha: 62 g ai/ha; for pest or weed control at 250 g/ha: 250 g ai/ha
How it was run: (§1)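 Applications: preemergence onto seeded soil and postemergence onto 1- to 4-leaf seedlings, compound carried in non-phytotoxic solvent plus surfactant. Kept in greenhouse 12 to 14 days. Scored visually relative to untreated controls, 0 (no effect) to 100 (complete control).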

[2] = system: bermudagrass (Cynodon dactylon); conditions: Cynodon dactylon; for pest or weed control at 62 g/ha: 62 g ai/ha; for pest or weed control at 125 g/ha: 125 g ai/ha; for pest or weed control at 125 g/ha / pest or weed control at 250 g/ha / pest or weed control at 500 g/ha: scale 0 to 100; for pest or weed control at 250 g/ha: 250 g ai/ha; for pest or weed control at 500 g/ha: 500 g ai/ha
How it was run: as §1

[3] = system: common ragweed (Ambrosia elatior); conditions: Ambrosia artemisiifolia; for pest or weed control at 62 g/ha: 62 g ai/ha; for pest or weed control at 125 g/ha: 125 g ai/ha; for pest or weed control at 250 g/ha: 250 g ai/ha; for pest or weed control at 500 g/ha: 500 g ai/ha
How it was run: as §1

[4] = system: giant foxtail (Setaria faberii); conditions: Setaria faberi; for pest or weed control at 125 g/ha: 125 g ai/ha; for pest or weed control at 500 g/ha: 500 g ai/ha; for pest or weed control at 62 g/ha: 62 g ai/ha; for pest or weed control at 250 g/ha: 250 g ai/ha
How it was run: as §1

[5] = system: goosegrass (Eleusine indica); conditions: Eleusine indica; for pest or weed control at 62 g/ha: 62 g ai/ha; for pest or weed control at 125 g/ha: 125 g ai/ha; for pest or weed control at 250 g/ha: 250 g ai/ha; for pest or weed control at 500 g/ha: 500 g ai/ha
How it was run: as §1

[6] = system: lambsquarters (Chenopodium album); conditions: Chenopodium album, post-emergence, Postemergence
How it was run: as §1

[7] = post-emergence, Postemergence, scale 0 to 100 (0 no effect, 100 complete control), read-out: Surinam Grass plant response rating
[8] = post-emergence, Postemergence, scale 0 to 100, read-out: Plant response rating, Surinam Grass
[9] = pre-emergence, Preemergence, scale 0 to 100, read-out: Plant response rating, Surinam Grass
[10] = post-emergence, Postemergence, read-out: Plant response rating, Bermudagrass
[11] = pre-emergence, Preemergence, read-out: Plant response rating, Bermudagrass
[12] = post-emergence, Postemergence, scale 0 to 100 (0 no effect, 100 complete control), read-out: Ragweed plant response rating
[13] = post-emergence, Postemergence, scale 0 to 100, read-out: Plant response rating, Ragweed
[14] = pre-emergence, Preemergence, scale 0 to 100, read-out: Plant response rating, Ragweed
[15] = post-emergence, Postemergence, scale 0 to 100 (0 no effect, 100 complete control), read-out: Foxtail, Giant plant response rating
[16] = post-emergence, Postemergence, scale 0 to 100, read-out: Plant response rating, Foxtail, Giant
[17] = pre-emergence, Preemergence, scale 0 to 100, read-out: Plant response rating, Foxtail, Giant
[18] = post-emergence, Postemergence, scale 0 to 100 (0 no effect, 100 complete control), read-out: Goosegrass plant response rating
[19] = post-emergence, Postemergence, scale 0 to 100, read-out: Plant response rating, Goosegrass
[20] = pre-emergence, Preemergence, scale 0 to 100, read-out: Plant response rating, Goosegrass

How did the pest or weed control at 125 g/ha [1, 7] turn out when `Nc1nc(C2CC2)nc(C(=O)O)c1Br` [Compound 8] was run?
The pest or weed control at 125 g/ha was 65%.

And the pest or weed control at 500 g/ha [1, 8]?
Its pest or weed control at 500 g/ha is 80%.

And the pest or weed control at 62 g/ha [1, 7]?
Its pest or weed control at 62 g/ha is 40%.

What about the pest or weed control at 250 g/ha [1, 8] of the same compound?
The pest or weed control at 250 g/ha was 70%.

And the pest or weed control at 62 g/ha ([1]; pre-emergence, Preemergence, scale 0 to 100, 0 no effect, 100 complete control, read-out: Plant response rating, Surinam Grass)?
The pest or weed control at 62 g/ha was 0%.

And the pest or weed control at 125 g/ha [1, 9]?
Its pest or weed control at 125 g/ha is 100%.

What about the pest or weed control at 250 g/ha [1, 9] of the same compound?
The pest or weed control at 250 g/ha was 100%.

What about the pest or weed control at 500 g/ha [1, 9] of the same compound?
Its pest or weed control at 500 g/ha is 100%.

What about the pest or weed control at 62 g/ha ([2]; post-emergence, Postemergence, scale 0 to 100 (0 no effect, 100 complete control), read-out: Bermudagrass plant response rating) of the same compound?
Its pest or weed control at 62 g/ha is 50%.

What about the pest or weed control at 125 g/ha [2, 10] of the same compound?
Its pest or weed control at 125 g/ha is 60%.

What about the pest or weed control at 250 g/ha [2, 10] of the same compound?
The pest or weed control at 250 g/ha was 65%.

And the pest or weed control at 500 g/ha [2, 10]?
Its pest or weed control at 500 g/ha is 75%.

And the pest or weed control at 62 g/ha ([2]; pre-emergence, Preemergence, scale 0 to 100, 0 no effect, 100 complete control, read-out: Plant response rating, Bermudagrass)?
The pest or weed control at 62 g/ha was 100%.

What about the pest or weed control at 125 g/ha [2, 11] of the same compound?
Its pest or weed control at 125 g/ha is 100%.

And the pest or weed control at 250 g/ha [2, 11]?
Its pest or weed control at 250 g/ha is 100%.

What about the pest or weed control at 500 g/ha [2, 11] of the same compound?
The pest or weed control at 500 g/ha was 100%.

And the pest or weed control at 62 g/ha [3, 12]?
Its pest or weed control at 62 g/ha is 60%.

And the pest or weed control at 125 g/ha [3, 12]?
Its pest or weed control at 125 g/ha is 80%.

What about the pest or weed control at 250 g/ha [3, 13] of the same compound?
The pest or weed control at 250 g/ha was 95%.

And the pest or weed control at 500 g/ha [3, 13]?
The pest or weed control at 500 g/ha was 100%.

What about the pest or weed control at 62 g/ha ([3]; pre-emergence, Preemergence, scale 0 to 100, 0 no effect, 100 complete control, read-out: Plant response rating, Ragweed) of the same compound?
The pest or weed control at 62 g/ha was 100%.

And the pest or weed control at 125 g/ha [3, 14]?
The pest or weed control at 125 g/ha was 100%.

What about the pest or weed control at 250 g/ha [3, 14] of the same compound?
Its pest or weed control at 250 g/ha is 100%.

And the pest or weed control at 500 g/ha [3, 14]?
The pest or weed control at 500 g/ha was 100%.

What about the pest or weed control at 125 g/ha [4, 15] of the same compound?
The pest or weed control at 125 g/ha was 60%.

What about the pest or weed control at 500 g/ha [4, 16] of the same compound?
The pest or weed control at 500 g/ha was 75%.

And the pest or weed control at 62 g/ha [4, 15]?
Its pest or weed control at 62 g/ha is 40%.

What about the pest or weed control at 250 g/ha [4, 16] of the same compound?
The pest or weed control at 250 g/ha was 70%.

What about the pest or weed control at 62 g/ha ([4]; pre-emergence, Preemergence, scale 0 to 100, 0 no effect, 100 complete control, read-out: Plant response rating, Foxtail, Giant) of the same compound?
Its pest or weed control at 62 g/ha is 0%.

And the pest or weed control at 125 g/ha [4, 17]?
Its pest or weed control at 125 g/ha is 0%.

What about the pest or weed control at 250 g/ha [4, 17] of the same compound?
The pest or weed control at 250 g/ha was 0%.

And the pest or weed control at 500 g/ha [4, 17]?
Its pest or weed control at 500 g/ha is 0%.

And the pest or weed control at 62 g/ha [5, 18]?
Its pest or weed control at 62 g/ha is 0%.

And the pest or weed control at 125 g/ha [5, 18]?
Its pest or weed control at 125 g/ha is 0%.

And the pest or weed control at 250 g/ha [5, 19]?
The pest or weed control at 250 g/ha was 45%.

What about the pest or weed control at 500 g/ha [5, 19] of the same compound?
The pest or weed control at 500 g/ha was 60%.

What about the pest or weed control at 62 g/ha ([5]; pre-emergence, Preemergence, scale 0 to 100, 0 no effect, 100 complete control, read-out: Plant response rating, Goosegrass) of the same compound?
Its pest or weed control at 62 g/ha is 0%.

And the pest or weed control at 125 g/ha [5, 20]?
The pest or weed control at 125 g/ha was 0%.

What about the pest or weed control at 250 g/ha [5, 20] of the same compound?
The pest or weed control at 250 g/ha was 35%.

And the pest or weed control at 500 g/ha [5, 20]?
The pest or weed control at 500 g/ha was 45%.

What about the pest or weed control at 62 g/ha ([6]; 62 g ai/ha, scale 0 to 100 (0 no effect, 100 complete control), read-out: Lambsquarters plant response rating) of the same compound?
The pest or weed control at 62 g/ha was 75%.

What about the pest or weed control at 125 g/ha ([6]; 125 g ai/ha, scale 0 to 100 (0 no effect, 100 complete control), read-out: Lambsquarters plant response rating) of the same compound?
The pest or weed control at 125 g/ha was 100%.

What about the pest or weed control at 250 g/ha ([6]; 250 g ai/ha, scale 0 to 100, read-out: Plant response rating, Lambsquarters) of the same compound?
Its pest or weed control at 250 g/ha is 100%.

And the pest or weed control at 500 g/ha ([6]; 500 g ai/ha, scale 0 to 100, read-out: Plant response rating, Lambsquarters)?
Its pest or weed control at 500 g/ha is 100%.
